Entries after “also recorded” stand apart in the source; their conditions may differ. Where two headings read alike, the source gives them in different places.
What was measured:
[1] = in water, powder, trihydrate, cited from earlier work
soybean [2] = assay: Seedling establishment of soybean seeds submerged for two days (Example 6a-1, FIG. 20e); type: in vivo; settings: 0.01 mmol to 0.5 mmol molybdenum per gram of dry seed, 25° C., versus untreated seeds
Procedure: Soil was prepared in the same manner as in Example 6-1. Next, soybean seeds (branded as Fukuyutaka) not subjected to treatment such as soaking in advance were soaked for one minute in a tenfold diluted solution of a commercially available laundry starch (manufactured by Rocket Soap Co., Ltd.; My Laundry Starch) containing approximately a little less than 10% by weight of polyvinyl alcohol. Then, the seeds were spin-dried for thirty seconds in a commercially available washing machine for removal of the extra water. […] These seeds were buried so that the upper edge of each seed was at the same height as the soil surface. In an artificially-lit (amount of light 0.4 mmol/m^2/s, lit for twelve hours per day) room at 25° C., water was added immediately after seeding so that the surface water was 15 mm high. After two days, the surface water was sucked up with a pipette for removal. Six containers were allotted for each condition, and the proportion of seedling establishment (proportion of individual plants that survived) was measured two weeks after seeding. It should be noted that in FIG. 20e, the horizontal axis represents the number of moles (mmol) of molybdenum that adhered per gram of dry seed. In FIG. 20e, the dots correspond to the numbers of moles of 0 (UNTREATED), 0.01, 0.02, 0.05, 0.1, 0.2, and 0.5 mmol, starting from the left. […]

paddy rice = assay: Seedling establishment of coated paddy seeds planted in a paddy field (Example 4-5, FIG. 22); type: in vivo; settings: dry seeds coated with clay plus 0.1 mmol/g molybdenum; kept submerged, about one month after seeding; versus WITHOUT MATERIAL and oxygen generating agent (Cal); trihydrate
Procedure: Dry paddy seeds (branded as Hinohikari) were prepared.
Separately, dry seeds (WITHOUT MATERIAL) coated solely with clay containing no molybdenum were also prepared. Furthermore, dry seeds (Cal) coated with an oxygen generating agent (Calper Powder 16, Hodogaya UPL Co., Ltd.) the same weight per dry seeds were also prepared. Calper Powder 16 is an oxygen generating agent composed mainly of calcium peroxide.
These dry seeds were planted in puddled soil in a paddy field in Chikugo City, Fukuoka Prefecture, by using a simultaneous puddling and planting point sowing machine. By preparing the seeds as described above and planting them by using a point sowing machine, the amount of seeding per unit area of the paddy field can be substantially uniformed. It should be noted that prior to soil puddling, 4 g/m^2 of ammonium sulfate as nitrogen and potassium sulfate containing potassium equivalent to 8 g/m^2 as potassium oxide had been applied to the paddy field. After seeding, the seeds were kept submerged without draining the water.

barley = assay: Seedling establishment of barley seeds in humid soil (Example 6-1, FIG. 20a); type: in vivo; settings: 0.01 mmol to 0.5 mmol molybdenum per gram of dry seed, 20° C., after two weeks
Procedure: As in Example 4-1, ammonium sulfate in an equivalent amount of 10 g/m^2 in terms of nitrogen and potassium chloride equivalent to 5 g/m^2 of potassium as potassium oxide were added as a solution to paddy humid soil in terms of 100 kg/m^2 of dry soil with a soil-to-liquid ratio of 0.7. The soil was placed into each container (in the shape of a cylinder approximately 7 cm in diameter) in an amount equivalent to 100 g of dry soil. The soil surface was flattened by giving it a slight press with a flat plate. Then, the soil was left at rest for one day at 4° C. […] The seeds were then half-buried in the soil. After that, at a constant temperature of 20° C., the water level was kept by adding water to such an extent that the seeds were slightly covered with water. Six containers were allotted for each condition, and the proportion of seedling establishment (proportion of individual plants that survived) was measured after two weeks. It should be noted that in each of FIGS. 20a and 20b, the horizontal axis represents the number of moles (mmol) of molybdenum that adhered per gram of dry seed. In each of FIGS. 20a and 20b, the dots correspond to the numbers of moles of 0, 0.01, 0.02, 0.05, 0.1, 0.2, and 0.5 mmol, starting from the left. […]

decay of paddy seeds = assay: Decay-inhibiting effect in tank farming without soil (Example 3); settings: seeds covered with substance, soaked two weeks in water at 30° C.
Procedure: The decay-inhibiting effect of molybdenum-containing substances in tank farming without soil was examined.
The possibility of growth and the inhibition of decay were determined in the same manner as above.

soybean [3] = assay: Seedling establishment of soybean seeds with ammonium molybdophosphate (Example 5, FIG. 12); type: in vivo; settings: 20° C. and 30° C., after two weeks
Procedure: As in Example 4-1, ammonium sulfate in an equivalent amount of 10 g/m^2 in terms of nitrogen and potassium chloride equivalent to 5 g/m^2 of potassium as potassium oxide were added as a solution to paddy humid soil, on the condition that the weight of dry soil is 100 kg/m^2. The soil was placed into each container (in the shape of a cylinder approximately 7 cm in diameter) in an amount equivalent to 100 g of dry soil, shaken for approximately one hour, and left at rest for two days at 4° C. It should be noted, however, that the soil-to-liquid ratio was 0.7. On this condition, the soil surface became substantially as high as the water surface. Barley seeds (branded as Nishinochikara) and soybean seeds (branded as Fukuyutaka) not subjected to treatment such as soaking in advance were soaked in water for one minute. Immediately after the extra water was removed, the seeds were put with a […] molybdenum amount of ammonium molybdophosphate (purchased from Wako Pure Chemical Industries, Ltd.) per gram of dry seed. The seeds were then half-buried in the samples of soil. […] Six containers were allotted for each condition, and the proportion of seedling establishment (proportion of individual plants that survived) was measured after two weeks.

[4] = Molybdenum concentration of aqueous solutions/supernatants measured by ICP-AES versus calculated values (FIGS. 5 and 6); type: physicochemical; settings: water, FIG. 6
Procedure: Similarly, aqueous solutions of the slightly-soluble molybdenum-containing substances (as indicated by “Slightly-soluble” in the column “Water solubility” in Table 1) in varying concentrations were prepared. […] In particular, ammonium molybdophosphate (MoPNH), which is a salt of a heteroacid, stops dissolving at a molybdenum amount of approximately 0.2 mM or higher, and can therefore be kept at an especially low concentration.

Substance: Triammonium 12-moblydo(VI)phosphate trihydrate [Ammonium molybdophosphate]
- Water solubility ([1]; listed as ammonium molybdophosphate): slightly soluble
- Water solubility [1]: Slightly soluble (has a percentage of solubility of 10% by weight or lower with respect to water)
- proportion of seedling establishment (soybean [2]): improvements in proportion of seedling establishment
- seedling establishment (paddy rice): obvious improvements in seedling establishment; also recorded: most remarkable improving effect on seedling establishment
- proportion of seedling establishment (barley): improvements in proportion of seedling establishment
- Inhibition of decay, Amount of molybdenum or tungsten added to seed (decay of paddy seeds): <0.01 mmol/g
- proportion of seedling establishment (soybean [3]): improvements in proportion of seedling establishment
- molybdenum amount at which the substance stops dissolving [4]: approximately 0.2 mM

From patent US20120283096A1, “AGENT FOR IMPROVING PLANT GROWTH, SEEDS, AND METHOD FOR IMPROVING PLANT GROWTH” (Incorporated Administrative Agency National Agricu lture …, priority 2010, published 2012)
